Test results taken from article PMC10006169, “A phase I trial of LXS196, a protein kinase C (PKC) inhibitor, for metastatic uveal melanoma” (British Journal of Cancer, 2023).

System: patients with MUM
Assay: Adverse events regardless of study drug relationship
Format: in vivo, human
Method: Routine safety assessments, including laboratory assessments, physical examinations, vital signs and electrocardiograms (ECGs), were conducted at regular intervals throughout the study and more frequently as needed following patient assessment by the treating physician. Adverse events (AEs) were assessed continuously according to the National Cancer Institute Common Terminology Criteria for Adverse Events (NCI-CTCAE) v4.03.

`CC1(N)CCN(c2cccnc2NC(=O)c2nc(-c3ncccc3C(F)(F)F)cnc2N)CC1` [LXS196] was tested, and the “ALT increased, all grades” value (500 mg QD) was 3 (27.3) n (%), the “ALT increased, grade ≥3” value (500 mg QD) was 1 (9.1) n (%) and the “AST increased, all grades” value (500 mg QD) was 4 (36.4) n (%). The “AST increased, grade ≥3” value (500 mg QD) was 1 (9.1) n (%), the “Abdominal pain upper, all grades” value (500 mg QD) was 2 (18.2) n (%) and the “Abdominal pain upper, grade ≥3” value (500 mg QD) was 0 n (%). The “Asthenia, all grades” value (500 mg QD) was 4 (36.4) n (%), the “Asthenia, grade ≥3” value (500 mg QD) was 0 n (%) and the “Blood creatinine increased, all grades” value (500 mg QD) was 0 n (%). For the same compound, the “Blood creatinine increased, grade ≥3” value (500 mg QD) was 0 n (%), the “Constipation, all grades” value (500 mg QD) was 2 (18.2) n (%) and the “Constipation, grade ≥3” value (500 mg QD) was 0 n (%). The “Decreased appetite, all grades” value (500 mg QD) was 4 (36.4) n (%), the “Decreased appetite, grade ≥3” value (500 mg QD) was 0 n (%) and the “Dermatitis acneiform, all grades” value (500 mg QD) was 1 (9.1) n (%). The “Dermatitis acneiform, grade ≥3” value (500 mg QD) was 0 n (%), the “Diarrhoea, all grades” value (500 mg QD) was 5 (45.5) n (%) and the “Diarrhoea, grade ≥3” value (500 mg QD) was 0 n (%). The “Dry skin, all grades” value (500 mg QD) was 1 (9.1) n (%), the “Dry skin, grade ≥3” value (500 mg QD) was 0 n (%) and the “Fatigue, all grades” value (500 mg QD) was 1 (9.1) n (%). For the same compound, the “Fatigue, grade ≥3” value (500 mg QD) was 0 n (%), the “Hypotension, all grades” value (500 mg QD) was 4 (36.4) n (%) and the “Hypotension, grade ≥3” value (500 mg QD) was 3 (27.3) n (%). For the same compound, the “Nasopharyngitis, all grades” value (500 mg QD) was 0 n (%), the “Nasopharyngitis, grade ≥3” value (500 mg QD) was 0 n (%) and the “Nausea, all grades” value (500 mg QD) was 8 (72.7) n (%). For the same compound, the “Nausea, grade ≥3” value (500 mg QD) was 0 n (%), the “Neutropenia, all grades” value (500 mg QD) was 2 (18.2) n (%) and the “Neutropenia, grade ≥3” value (500 mg QD) was 1 (9.1) n (%). The “Oedema peripheral, all grades” value (500 mg QD) was 1 (9.1) n (%), the “Oedema peripheral, grade ≥3” value (500 mg QD) was 0 n (%) and the “Patients with ≥1 AE, all grades” value (500 mg QD) was 10 (90.9) n (%). For the same compound, the “Patients with ≥1 AE, grade ≥3” value (500 mg QD) was 4 (36.4) n (%), the “Rash, all grades” value (500 mg QD) was 0 n (%) and the “Rash, grade ≥3” value (500 mg QD) was 0 n (%). The “Vomiting, all grades” value (500 mg QD) was 5 (45.5) n (%), the “Vomiting, grade ≥3” value (500 mg QD) was 0 n (%) and the “ALT increased, all grades” value (800 mg QD) was 0 n (%). The “ALT increased, grade ≥3” value (800 mg QD) was 0 n (%), the “AST increased, all grades” value (800 mg QD) was 0 n (%) and the “AST increased, grade ≥3” value (800 mg QD) was 0 n (%). For the same compound, the “Abdominal pain upper, all grades” value (800 mg QD) was 0 n (%), the “Abdominal pain upper, grade ≥3” value (800 mg QD) was 0 n (%) and the “Asthenia, all grades” value (800 mg QD) was 0 n (%). For the same compound, the “Asthenia, grade ≥3” value (800 mg QD) was 0 n (%), the “Blood creatinine increased, all grades” value (800 mg QD) was 0 n (%) and the “Blood creatinine increased, grade ≥3” value (800 mg QD) was 0 n (%). For the same compound, the “Constipation, all grades” value (800 mg QD) was 0 n (%), the “Constipation, grade ≥3” value (800 mg QD) was 0 n (%) and the “Decreased appetite, all grades” value (800 mg QD) was 0 n (%). For the same compound, the “Decreased appetite, grade ≥3” value (800 mg QD) was 0 n (%), the “Dermatitis acneiform, all grades” value (800 mg QD) was 0 n (%) and the “Dermatitis acneiform, grade ≥3” value (800 mg QD) was 0 n (%). The “Diarrhoea, all grades” value (800 mg QD) was 1 (100) n (%), the “Diarrhoea, grade ≥3” value (800 mg QD) was 0 n (%) and the “Dry skin, all grades” value (800 mg QD) was 0 n (%). The “Dry skin, grade ≥3” value (800 mg QD) was 0 n (%), the “Fatigue, all grades” value (800 mg QD) was 0 n (%) and the “Fatigue, grade ≥3” value (800 mg QD) was 0 n (%). The “Hypotension, all grades” value (800 mg QD) was 1 (100) n (%), the “Hypotension, grade ≥3” value (800 mg QD) was 1 (100) n (%) and the “Nasopharyngitis, all grades” value (800 mg QD) was 0 n (%). The “Nasopharyngitis, grade ≥3” value (800 mg QD) was 0 n (%), the “Nausea, all grades” value (800 mg QD) was 1 (100) n (%) and the “Nausea, grade ≥3” value (800 mg QD) was 0 n (%). The “Neutropenia, all grades” value (800 mg QD) was 0 n (%), the “Neutropenia, grade ≥3” value (800 mg QD) was 0 n (%) and the “Oedema peripheral, all grades” value (800 mg QD) was 0 n (%). The “Oedema peripheral, grade ≥3” value (800 mg QD) was 0 n (%), the “Patients with ≥1 AE, all grades” value (800 mg QD) was 1 (100) n (%) and the “Patients with ≥1 AE, grade ≥3” value (800 mg QD) was 1 (100) n (%). The “Rash, all grades” value (800 mg QD) was 0 n (%), the “Rash, grade ≥3” value (800 mg QD) was 0 n (%) and the “Vomiting, all grades” value (800 mg QD) was 0 n (%). For the same compound, the “Vomiting, grade ≥3” value (800 mg QD) was 0 n (%), the “ALT increased, all grades” value (1000 mg QD) was 1 (25.0) n (%) and the “ALT increased, grade ≥3” value (1000 mg QD) was 0 n (%). For the same compound, the “AST increased, all grades” value (1000 mg QD) was 0 n (%), the “AST increased, grade ≥3” value (1000 mg QD) was 0 n (%) and the “Abdominal pain upper, all grades” value (1000 mg QD) was 0 n (%). For the same compound, the “Abdominal pain upper, grade ≥3” value (1000 mg QD) was 0 n (%), the “Asthenia, all grades” value (1000 mg QD) was 0 n (%) and the “Asthenia, grade ≥3” value (1000 mg QD) was 0 n (%). For the same compound, the “Blood creatinine increased, all grades” value (1000 mg QD) was 0 n (%), the “Blood creatinine increased, grade ≥3” value (1000 mg QD) was 0 n (%) and the “Constipation, all grades” value (1000 mg QD) was 0 n (%). The “Constipation, grade ≥3” value (1000 mg QD) was 0 n (%), the “Decreased appetite, all grades” value (1000 mg QD) was 0 n (%) and the “Decreased appetite, grade ≥3” value (1000 mg QD) was 0 n (%). The “Dermatitis acneiform, all grades” value (1000 mg QD) was 0 n (%), the “Dermatitis acneiform, grade ≥3” value (1000 mg QD) was 0 n (%) and the “Diarrhoea, all grades” value (1000 mg QD) was 4 (100) n (%). For the same compound, the “Diarrhoea, grade ≥3” value (1000 mg QD) was 0 n (%), the “Dry skin, all grades” value (1000 mg QD) was 1 (25.0) n (%) and the “Dry skin, grade ≥3” value (1000 mg QD) was 0 n (%). For the same compound, the “Fatigue, all grades” value (1000 mg QD) was 3 (75.0) n (%), the “Fatigue, grade ≥3” value (1000 mg QD) was 0 n (%) and the “Hypotension, all grades” value (1000 mg QD) was 2 (50.0) n (%). The “Hypotension, grade ≥3” value (1000 mg QD) was 1 (25.0) n (%), the “Nasopharyngitis, all grades” value (1000 mg QD) was 1 (25.0) n (%) and the “Nasopharyngitis, grade ≥3” value (1000 mg QD) was 0 n (%). For the same compound, the “Nausea, all grades” value (1000 mg QD) was 4 (100) n (%), the “Nausea, grade ≥3” value (1000 mg QD) was 0 n (%) and the “Neutropenia, all grades” value (1000 mg QD) was 0 n (%). For the same compound, the “Neutropenia, grade ≥3” value (1000 mg QD) was 0 n (%), the “Oedema peripheral, all grades” value (1000 mg QD) was 0 n (%) and the “Oedema peripheral, grade ≥3” value (1000 mg QD) was 0 n (%). For the same compound, the “Patients with ≥1 AE, all grades” value (1000 mg QD) was 4 (100) n (%), the “Patients with ≥1 AE, grade ≥3” value (1000 mg QD) was 2 (50.0) n (%) and the “Rash, all grades” value (1000 mg QD) was 0 n (%). For the same compound, the “Rash, grade ≥3” value (1000 mg QD) was 0 n (%), the “Vomiting, all grades” value (1000 mg QD) was 0 n (%) and the “Vomiting, grade ≥3” value (1000 mg QD) was 0 n (%).
